Patent publication US9587225B2, “Low-molecular-compound for improving production, maintenance and proliferation of pluripotent stem cells, composition comprising the same, and culture method” (KOREA RESEARCH INSTITUTE OF BIOSCIENCE AND BIOTECHNOLOGY, priority 2012, dated 2017)

Legend:
[1] = system: human skin fibroblasts (hFFs); assay: Reprogramming of human skin fibroblasts, AP-positive colony count; format: cell-based
Description: In order to screen low-molecular-weight compounds that promote the production of reprogrammed stem cells, human fibroblasts were transduced with reprogramming viruses (Oct4, Sox2, Klf4, and c-Myc). After 5 days, the cells were seeded on Matrigel-coated plates, and then cultured in MEF-conditioned medium (CM) containing each of low-molecular-weight compounds until colonies having a morphology similar to that of human embryonic stem cells were formed. After 15 days, alkaline phosphatase (AP) activity was measured, and compounds that increased the efficiency of reprogramming compared to that of a control group were selected. […] The values shown on the graph are mean values. The data are expressed as mean±SD (n=3).
For production of iPSC, human skin fibroblasts (hFFs) and mouse embryonic fibroblasts (MEFs) were seeded on gelatin-coated 6-well plates at a concentration of 1×10^5 cells per well at one day before transfection and were transfected with virus in the presence of polybrene (8 μg/ml). At 5 days after the transfection, hFFs or MEFs were collected by trypsin treatment and seeded again on Matrigel-coated 6-well plates at a concentration of 5 to 6×10^4 cells per well in order to perform experiments in feeder-free conditions. The medium was replaced with MEF-CM medium containing 10 ng/ml of bFGF. MEF-CM was prepared as γ-irradiated MEF according to a known method (Xu C. Nat Biotechnol 19, 971-974), and […] bFGF was added to MEF-CM. The medium was replaced at 2-day intervals. At 20 days after the transfection, hESC-like colonies were collected and transferred to 12-well plates having MEFs as feeder cells, and then continuously cultured using the hESC culture method described in Example 2.
The OSKM reprogramming factor virus was produced according to the method of Example 3. In order to screen low-molecular-weight compounds that increase the efficiency of reprogramming, hFFs and mouse embryonic fibroblasts (OG2-MEF; hemizygous for the Oct4-GFP transgene) were seeded on gelatin-coated 6-well plates at a concentration of 1×10^5 cells at one day before transfection, and then transfected with virus in the presence of polybrene (8 μg/ml). At 5 days after the transfection, hFFs or MEFs were collected by trypsin treatment and seeded again on Matrigel- or gelatin-coated 12-well plates at a concentration of 3.5×10^4 cells per well in order to perform experiments under feeder-free conditions. The medium was replaced with 10 ng/ml bFGF-containing MEF-CM or mouse embryonic stem cell culture medium, and then the prepared low-molecular-weight compounds that are trans-3-indoleacrylic based compounds were added at various concentrations. The culture medium containing each of the low-molecular-weight compounds was replaced at 2-day intervals. At 15 days after the transfection, the number of either colonies showing AP activity or colonies expressing endogenous Oct4 GFP fluorescence was measured to determine the efficiency of reprogramming.
ALP staining was performed using a commercial ALP kit (Sigma) according to the manufacturer's instruction. Images of ALP-positive cells were recorded using HP Scanjet G4010. In addition, bight field images were obtained using an Olympus microscope (IX51, Olympus, Japan).
To discover low-molecular-weight compounds that involved in the reprogramming of human somatic cells, reprogramming regulators of human skin fibroblasts were investigated by analog library screening of thirty selected novel trans-3-indoleacrylic acid-based compounds. Human skin fibroblasts were transfected with OSKM reprogramming virus, and after 5 days, the cells were seeded on Matrigel-coated 12-well plates and incubated in MEF-conditioned medium (CM) containing each of the low-molecular-weight compounds until colonies having a morphology similar to that of human embryonic stem cells were formed.

[2] = system: human skin fibroblasts; assay: BrdU immunocytochemical analysis of proliferating cell population; format: cell-based
Description: Immunocytochemical analysis was performed using monoclonal antibody for bromodeoxyuridine (BrdU), and then percent BrdU positive cells are graphically shown. The values shown on the graph are mean values. The data are expressed as ±SD (n=3) (*P<0.05, by t-test).
The left panel is a set of graphs showing the results of immunocytochemical analysis performed using monoclonal antibody for BrdU, and the right panel is a graph showing the results of measurement of percent BrdU positive cells. The values shown on the graph are mean values. The data are expressed as mean±SD (n=3).
For immunostaining, cells were seeded on Matrigel-coated 4-well Lab-Tek chamber slides (Nunc, Naperville, Ill.) and cultured for 5 days under the indicated conditions. The cells were fixed in 4% paraformaldehyde at room temperature for 15 minutes, and then washed with PBS/0.2% BSA. Next, the cells were passed through PBS/0.2% BSA/0.1% Triton X-100 for 15 minutes, and then incubated with 4% normal donkey serum (Molecular Probes, Eugene, Oreg., USA) in PBS/0.2% BSA at room temperature for 1 hour. The cells were diluted with PBS/0.2% BSA, and then reacted with primary antibody at 4° C. for 2 hours. After washing, the cells were reacted with FITC- or Alexa594-conjugated secondary antibody (Invitrogen) in PBS/0.2% BSA at room temperature for 1 hour. The cells were counter-stained with 10 μg/ml DAPI. […]

[3] = system: Nanog, Oct4, Rex1, p53, p21 and p16; assay: Expression of pluripotency markers and p53, p21, p16 during reprogramming (real-time RT-PCR, immunostaining); format: cell-based, human
Description: In still another example of the present invention, in order to examine whether the novel compound RSC-133 can promote kinetics in a culture process for reprogramming to shorten the time required for the induction of reprogramming, the expression patterns of pluripotency-specific markers were analyzed at various time points.
Total RNA was isolated from the produced cells using RNeasy Mini kit (Qiagen, Valencia, Calif.), and then reverse-transcribed using SuperScript First-strand synthesis system kit (Invitrogen) according to the manufacturer's instruction. […]
In order to examine whether RSC-133 can increase the rate of reprogramming, the relative levels of mRNA expressed during the reprogramming process were measured. […] Thus, it can be seen that RSC-133 can increase the efficiency of reprogramming and also can be involved in the reprogramming process to stimulate kinetics.

NC(=O)c1cccc(NC(=O)/C=C/c2c[nH]c3ccccc23)c1 [RSC-133, 3-[3-(1H-indol-3-yl)-acrylamido]-benzamide]
concentration that increases the efficiency of reprogramming to the highest level ([1]; 0, 0.1, 1, 5, 10 and 20 μM tested): 10 µM | efficiency of reprogramming at 20 μM versus 10 μM ([1]; 20 μM (FIG. 8)): did not increase | efficiency of reprogramming, hypoxic conditions ([1]; 5% O2, compared to control group (FIG. 4)): showed the effect of increasing the efficiency of reprogramming of human skin fibroblasts | efficiency of reprogramming, normal conditions ([1]; 21% O2, compared to control group (FIG. 4)): showed the effect of increasing the efficiency of reprogramming of human skin fibroblasts | efficiency of reprogramming (alkaline phosphatase activity) ([1]; OSKM, MEF-CM, after 15 days, compared to control group (FIG. 3)): increased the efficiency of reprogramming of human skin fibroblasts | effect on the promotion of reprogramming of human cells relative to AZA, VPA, TSA and SB431542 ([1]; RSC 133 10 μM, AP-positive colonies, OSKM (FIG. 2b)): 1.5-3.3 times | concentration dependence of the increase in efficiency of reprogramming ([1]; treatment concentration of up to 10 μM, AP-positive colonies (FIG. 8)): concentration-dependent manner | efficiency of reprogramming, continuous treatment ([1]; treatment throughout the reprogramming process (condition 1 in FIG. 10)): increased to the highest level | BrdU-positive cell population, reprogramming not induced ([2]; OSKM-transfected human skin fibroblasts, reprogramming not induced (FIG. 14)): increased BrdU-positive cell population | BrdU-positive cell population during the reprogramming process ([2]; during reprogramming (FIG. 13)): increased BrdU-positive cell population | time of appearance of pluripotency-specific markers (Nanog, Tra1-81, Oct4, Rex1) ([3]; immunostaining and real-time PCR at various time points (FIGS. 15, 16)): appeared early than that in an untreated control group | expression levels of undifferentiation markers Nanog, Oct4 and Rex1 ([3]; real-time RT-PCR, cells harvested at 5-day intervals, presence vs absence of RSC-133 (FIG. 16)): relatively increased | expression levels of p53, p21 and p16 ([3]; real-time RT-PCR, presence vs absence of RSC-133 (FIG. 16 lower panel)): relatively inhibited
